Assay results reported in ChEMBL document CHEMBL6127108, “Triantaspirols A-C and Paraphaeolactone Cs from Paraphaeosphaeria sp. KT4192: Sensitivity of CP3 in Distinguishing Close NMR Signals” (J Nat Prod, 2024).
The source made the active and inactive calls. The rule behind the calls is not given here.

System: COLO 201
Assay: Cytotoxicity against human COLO201 cells assessed as inhibition of cell growth incubated for 24 hrs by WST-1 assay
Assay type: functional, cell-based
Settings: for IC50: COLO 201, 24 h

Compound | IC50 | Activity
CC[C@@]1(O)C(=O)OCc2c1cc1n(c2=O)Cc2cc3ccccc3nc2-1 [CAMPTOTHECIN] | 34 µM | –
Cc1ccc(O)c2c1C(=O)[C@](C)(Oc1ccc(O)c3c1[C@@H](O)CCC31Oc3cccc4cccc(c34)O1)O2 | 23 µM | –
Oc1ccc(O)c2c1[C@@H](O)CCC21Oc2cccc3cccc(c23)O1 | – | inactive
C[C@@H]1C=C[C@@]2(O)[C@@H]3OC(=O)[C@@](O)([C@H]13)[C@@H]2Oc1ccc(O)c2c1C(=O)CCC21Oc2cccc3cccc(c23)O1 | – | inactive
Cc1ccc(O)c2c1C(=O)[C@@](C)(Oc1ccc(O)c3c1[C@@H](O)CCC31Oc3cccc4cccc(c34)O1)O2 | 17 µM | –
